We go through 29 compounds from patent US20260132129A1 (Genesis Therapeutics, Inc., priority 2022, published 2026).

The experiment concerns the target T1, PI3Kα H1047R (T47D cells) (Homo sapiens, UniProt P42336, H1047R).
T1 construct: endogenous in cells; host or cells: T47D cells
The experiment in a line: PI3Kα cellular assay: pAKT HTRF in T47D cells after EGF stimulation. Particulars: for IC50: T47D cells (PI3Kα H1047R), pAKT S473 HTRF. The format is cell-based. In a few lines: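 pAKT read by HTRF in lysates of EGF-stimulated (20 ng/mL, 10 min) T47D H1047R cells. Before stimulation, serum-starved cells (16 h) received compound for 1 h at 37 °C, dosed from 10,000 nM down to 0.5 nM in 3-fold steps.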
A general note: Time-resolved FRET reads energy transfer from a long-lived donor to a nearby acceptor.

The mark [1] stands for this setting: selectivity T47D (H1047R) over SKBR3 (WT), pAKT HTRF.
The mark [2] stands for this setting: 1 hr compound, 20 ng/ml EGF 10 min.
The mark [3] stands for this setting: selectivity of T47D (H1047R) over SKBR3 (WT) pAKT IC50.

T1 sequence (P42336 whole entry H1047R): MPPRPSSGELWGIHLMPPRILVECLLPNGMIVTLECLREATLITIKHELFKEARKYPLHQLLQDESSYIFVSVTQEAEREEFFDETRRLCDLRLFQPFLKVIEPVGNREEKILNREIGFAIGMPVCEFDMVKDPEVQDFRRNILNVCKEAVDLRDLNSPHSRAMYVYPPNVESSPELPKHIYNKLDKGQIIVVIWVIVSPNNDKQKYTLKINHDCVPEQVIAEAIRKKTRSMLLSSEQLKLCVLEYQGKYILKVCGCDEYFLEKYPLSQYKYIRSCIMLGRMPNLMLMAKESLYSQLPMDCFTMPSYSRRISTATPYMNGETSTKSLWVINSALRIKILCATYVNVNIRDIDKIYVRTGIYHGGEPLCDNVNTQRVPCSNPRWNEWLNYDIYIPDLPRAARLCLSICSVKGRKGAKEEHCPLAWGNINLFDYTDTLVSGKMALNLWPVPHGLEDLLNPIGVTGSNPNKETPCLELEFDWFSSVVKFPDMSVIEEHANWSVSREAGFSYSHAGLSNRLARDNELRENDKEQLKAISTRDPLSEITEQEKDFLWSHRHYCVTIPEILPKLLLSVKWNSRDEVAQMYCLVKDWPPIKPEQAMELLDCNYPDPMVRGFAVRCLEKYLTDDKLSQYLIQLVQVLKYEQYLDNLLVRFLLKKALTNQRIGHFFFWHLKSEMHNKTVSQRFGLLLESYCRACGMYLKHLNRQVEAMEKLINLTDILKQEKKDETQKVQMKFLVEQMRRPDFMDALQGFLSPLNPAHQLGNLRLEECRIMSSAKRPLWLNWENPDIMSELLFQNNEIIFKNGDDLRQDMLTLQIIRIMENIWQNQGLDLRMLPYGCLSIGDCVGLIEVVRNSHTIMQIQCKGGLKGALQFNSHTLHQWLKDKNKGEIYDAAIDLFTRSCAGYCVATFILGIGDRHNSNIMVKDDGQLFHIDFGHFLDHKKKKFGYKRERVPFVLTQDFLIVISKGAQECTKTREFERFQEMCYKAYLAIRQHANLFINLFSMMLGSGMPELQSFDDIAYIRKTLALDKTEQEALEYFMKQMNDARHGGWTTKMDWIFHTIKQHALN
T1 sequence (P27986 whole entry partner): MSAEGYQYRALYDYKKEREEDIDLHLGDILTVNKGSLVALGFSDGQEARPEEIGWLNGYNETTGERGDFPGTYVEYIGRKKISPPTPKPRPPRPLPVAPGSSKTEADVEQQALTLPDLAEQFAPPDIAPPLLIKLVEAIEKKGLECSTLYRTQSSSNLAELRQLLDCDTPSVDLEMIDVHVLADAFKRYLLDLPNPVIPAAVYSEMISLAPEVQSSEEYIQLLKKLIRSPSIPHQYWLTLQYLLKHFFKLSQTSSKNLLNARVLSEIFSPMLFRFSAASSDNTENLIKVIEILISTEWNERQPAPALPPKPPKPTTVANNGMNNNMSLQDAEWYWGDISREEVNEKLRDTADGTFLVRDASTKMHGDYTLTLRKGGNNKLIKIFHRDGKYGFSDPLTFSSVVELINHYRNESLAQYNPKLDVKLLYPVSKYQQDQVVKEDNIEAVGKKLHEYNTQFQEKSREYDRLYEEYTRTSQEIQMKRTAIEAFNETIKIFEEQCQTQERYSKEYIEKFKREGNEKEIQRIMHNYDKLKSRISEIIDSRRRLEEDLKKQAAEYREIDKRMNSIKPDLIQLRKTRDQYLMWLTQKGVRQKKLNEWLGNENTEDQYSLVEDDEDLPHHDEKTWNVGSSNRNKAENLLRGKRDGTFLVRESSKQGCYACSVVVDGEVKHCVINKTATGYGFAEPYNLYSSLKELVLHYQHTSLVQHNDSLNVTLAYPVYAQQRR

Turning to `CC(=O)N[C@H]1CCCC(c2cc(=O)n3cc(C)cc(C(C)Nc4ccccc4C(=O)O)c3n2)C1` (stereo partly drawn) [Compound 580], the “T47D pAKT S473 HTRF IC50 (H1047R): T47D (H1047R) selectivity over SKBR3 (WT)” value under setting [1] is “C (C denotes ≤5-fold)”.

Turning to `Cc1cc(C(C)Nc2ccccc2C(=O)O)c2nc(N3CCN(C(C)(C)C(N)=O)CC3)cc(=O)n2c1` (stereo not drawn) [Compound 581], the “T47D pAKT S473 HTRF IC50 (H1047R): T47D (H1047R) selectivity over SKBR3 (WT)” value under setting [1] was “C (C denotes ≤5-fold)”.

Take `Cc1cc(C(C)Nc2ccccc2S(N)(=O)=O)c2nc(-c3ccc(F)cc3)cc(=O)n2c1` (stereo not drawn) [Compound 585]: the IC50 (as a rule, the point on the concentration scale where inhibition reaches its midpoint) under setting [2] is more than 2000 nM. Moreover, the “T47D pAKT S473 HTRF IC50 (H1047R): T47D (H1047R) selectivity over SKBR3 (WT)” value under setting [1] is “C (C denotes ≤5-fold)”.

For `Cc1cc(C(C)Nc2ccccc2S(N)(=O)=O)c2nc(-c3ccc(F)cc3)cc(=O)n2c1` (stereo not drawn) [Compound 586], the IC50 under setting [2] is more than 2000 nM. For the same compound, under setting [1], the “T47D pAKT S473 HTRF IC50 (H1047R): T47D (H1047R) selectivity over SKBR3 (WT)” value is recorded as “C (C denotes ≤5-fold)”.

`Cc1cc([C@H](C)Nc2ccccc2S(N)(=O)=O)c2nc(-c3ccc(F)cc3)cc(=O)n2c1` [Compound 587] returned an IC50 under setting [2] of more than 2000 nM. Besides, the “T47D pAKT S473 HTRF IC50 (H1047R): T47D (H1047R) selectivity over SKBR3 (WT)” value under setting [1] is listed as “C (C denotes ≤5-fold)”.

Take `Cc1cc([C@H](C)Nc2cccc3c2CCC(=O)N3)c2nc(N3CCOCC3)cc(=O)n2c1` [Compound 604]: the concentration for half-maximal inhibition (IC50) under setting [2] is more than 2000 nM. The “T47D pAKT S473 HTRF IC50 (H1047R): T47D (H1047R) selectivity over SKBR3 (WT)” value under setting [1] is given as “C (C denotes ≤5-fold)”.

On to `Cc1cc([C@@H](C)Nc2ccccc2S(N)(=O)=O)c2nc(N3Cc4ccccc4C3)cc(=O)n2c1` [Compound 605, (R)-2-((1-(2-(isoindolin-2-yl)-7-methyl-4-oxo-4H-pyrido[1,2-a]pyrimidin-9-yl)ethyl)amino)benzenesulfonamide], for which the IC50 under setting [2] was less than 100 nM. Under setting [1], the “T47D pAKT S473 HTRF IC50 (H1047R): T47D (H1047R) selectivity over SKBR3 (WT)” value was “A (A denotes >20-fold)”.

On to `Cc1cc(C(C)Nc2ccccc2C(=O)O)c2nc(C3CCC(C)(C)CC3)cc(=O)n2c1` (stereo not drawn) [Compound 622], for which, under setting [2], the IC50 was in the range of 100 to 500 nM. Further, the “T47D pAKT S473 HTRF IC50 (H1047R): T47D (H1047R) selectivity over SKBR3 (WT)” value under setting [1] is recorded as “A (A denotes >20-fold)”.

Regarding `Cc1cc([C@@H](C)Nc2ccccc2C(=O)O)c2nc(C3CCC(C)(C)CC3)cc(=O)n2c1` [Compound 623, (R)-2-((1-(2-(4,4-dimethylcyclohexyl)-7-methyl-4-oxo-4H-pyrido[1,2-a]pyrimidin-9-yl)ethyl)amino)benzoic acid], under setting [2], the IC50 is less than 100 nM. The “T47D pAKT S473 HTRF IC50 (H1047R): T47D (H1047R) selectivity over SKBR3 (WT)” value under setting [1] is listed as “A (A denotes >20-fold)”.

In turn, `Cc1cc([C@H](C)Nc2ccccc2C(=O)O)c2nc(C3CCC(C)(C)CC3)cc(=O)n2c1` [Compound 624] yielded an IC50 under setting [2] of more than 2000 nM. Further, the “T47D pAKT S473 HTRF IC50 (H1047R): T47D (H1047R) selectivity over SKBR3 (WT)” value under setting [1] was “C (C denotes ≤5-fold)”.

On to `Cc1cc([C@@H](C)Nc2ccccc2C(=O)O)c2nc(-c3ccccc3)cc(=O)n2c1` [Compound 628], for which, under setting [2], the IC50 was more than 2000 nM. In addition, under setting [1], the “T47D pAKT S473 HTRF IC50 (H1047R): T47D (H1047R) selectivity over SKBR3 (WT)” value is on record as “C (C denotes ≤5-fold)”.

Under setting [2], `Cc1cc([C@H](C)Nc2ccccc2C(=O)O)c2nc(-c3ccccc3)cc(=O)n2c1` [Compound 629] showed an IC50 of less than 100 nM. Moreover, the “T47D pAKT S473 HTRF IC50 (H1047R): T47D (H1047R) selectivity over SKBR3 (WT)” value under setting [1] is “A (A denotes >20-fold)”.

Consider `Cc1cc(C(C)Nc2ccccc2)c2nc(N3Cc4ccccc4C3)cc(=O)n2c1` (stereo not drawn) [Compound 647], for which the “T47D pAKT S473 HTRF IC50 (H1047R): T47D (H1047R) selectivity over SKBR3 (WT)” value under setting [3] is “C (C denotes ≤5-fold)”.

With `Cc1cc([C@@H](C)N[C@H](C(=O)O)c2ccccc2)c2nc(N3CCOCC3)cc(=O)n2c1` [Compound 648], the IC50 (EGF stimulation) was more than 2000 nM. Also, the “T47D pAKT S473 HTRF IC50 (H1047R): T47D (H1047R) selectivity over SKBR3 (WT)” value under setting [3] was “C (C denotes ≤5-fold)”.

`Cc1cc([C@@H](C)N[C@@H](C(=O)O)c2ccccc2)c2nc(N3CCOCC3)cc(=O)n2c1` [Compound 649] returned an IC50 (EGF stimulation) of more than 2000 nM. Under setting [3], the “T47D pAKT S473 HTRF IC50 (H1047R): T47D (H1047R) selectivity over SKBR3 (WT)” value is “C (C denotes ≤5-fold)”.

The compound `Cc1cc([C@H](C)N[C@H](C(=O)O)c2ccccc2)c2nc(N3CCOCC3)cc(=O)n2c1` [Compound 650] registered an IC50 (EGF stimulation) of more than 2000 nM. Moreover, the “T47D pAKT S473 HTRF IC50 (H1047R): T47D (H1047R) selectivity over SKBR3 (WT)” value under setting [3] is reported as “C (C denotes ≤5-fold)”.

The compound `Cc1cc([C@H](C)N[C@@H](C(=O)O)c2ccccc2)c2nc(N3CCOCC3)cc(=O)n2c1` [Compound 651] registered an IC50 (EGF stimulation) of more than 2000 nM. Moreover, under setting [3], the “T47D pAKT S473 HTRF IC50 (H1047R): T47D (H1047R) selectivity over SKBR3 (WT)” value is on record as “C (C denotes ≤5-fold)”.

With `Cc1cc([C@H](C)Nc2ccccc2C(=O)O)c2nc(N3Cc4ccccc4[C@H]3C)cc(=O)n2c1` [Compound 654], the half-maximal inhibitory concentration (IC50) (EGF stimulation) was 500 to 2000 nM. Also, the “T47D pAKT S473 HTRF IC50 (H1047R): T47D (H1047R) selectivity over SKBR3 (WT)” value under setting [3] is given as “B (B denotes 20-fold≥value>5-fold)”.

Under “EGF stimulation”, `Cc1cc([C@@H](C)Nc2ccccc2C(=O)O)c2nc(N3Cc4ccccc4[C@H]3C)cc(=O)n2c1` [Compound 655] gave an IC50 of more than 2000 nM. Also, the “T47D pAKT S473 HTRF IC50 (H1047R): T47D (H1047R) selectivity over SKBR3 (WT)” value under setting [3] is “C (C denotes ≤5-fold)”.

As for `Cc1cc(C(C)Nc2ccccc2C(=O)O)c2nc(-c3ccc(C(=O)N(C)C)cc3)cc(=O)n2c1` (stereo not drawn) [Compound 657], the “T47D pAKT S473 HTRF IC50 (H1047R): T47D (H1047R) selectivity over SKBR3 (WT)” value under setting [3] is “B (B denotes 20-fold≥value>5-fold)”.

`Cc1cc([C@@H](C)Nc2ccccc2C(=O)O)c2nc(-c3ccc(C(=O)N(C)C)cc3)cc(=O)n2c1` [Compound 658]: the IC50 (EGF stimulation) fell in the range of 100 to 500 nM. The “T47D pAKT S473 HTRF IC50 (H1047R): T47D (H1047R) selectivity over SKBR3 (WT)” value under setting [3] is given as “A (A denotes >20-fold)”.

On to `Cc1cc([C@H](C)Nc2ccccc2C(=O)O)c2nc(-c3ccc(C(=O)N(C)C)cc3)cc(=O)n2c1` [Compound 659], for which the IC50 (EGF stimulation) is more than 2000 nM. In addition, the “T47D pAKT S473 HTRF IC50 (H1047R): T47D (H1047R) selectivity over SKBR3 (WT)” value under setting [3] is “C (C denotes ≤5-fold)”.

In the case of `CC(=O)c1ccc(-c2cc(=O)n3cc(C)cc([C@@H](C)Nc4ccccc4C(=O)O)c3n2)cc1` [Compound 660], for the setting “EGF stimulation”, the IC50 is less than 100 nM. Moreover, the “T47D pAKT S473 HTRF IC50 (H1047R): T47D (H1047R) selectivity over SKBR3 (WT)” value under setting [3] is “A (A denotes >20-fold)”.

As to `CC(=O)c1ccc(-c2cc(=O)n3cc(C)cc([C@H](C)Nc4ccccc4C(=O)O)c3n2)cc1` [Compound 661], the IC50 (EGF stimulation) was more than 2000 nM. The “T47D pAKT S473 HTRF IC50 (H1047R): T47D (H1047R) selectivity over SKBR3 (WT)” value under setting [3] is reported as “C (C denotes ≤5-fold)”.

Under “EGF stimulation”, `Cc1cc([C@@H](C)Nc2ccccc2C(=O)O)c2nc(-c3cc(C)c(F)c(C)c3)cc(=O)n2c1` [Compound 662] gave an IC50 of 100 to 500 nM. In addition, the “T47D pAKT S473 HTRF IC50 (H1047R): T47D (H1047R) selectivity over SKBR3 (WT)” value under setting [3] was “A (A denotes >20-fold)”.

The compound `Cc1cc([C@H](C)Nc2ccccc2C(=O)O)c2nc(-c3cc(C)c(F)c(C)c3)cc(=O)n2c1` [Compound 663] gave an IC50 (EGF stimulation) of more than 2000 nM. Besides, under setting [3], the “T47D pAKT S473 HTRF IC50 (H1047R): T47D (H1047R) selectivity over SKBR3 (WT)” value is “C (C denotes ≤5-fold)”.

`Cc1cc(C(C)Nc2ccccc2-c2ccnnc2)c2nc(N3Cc4ccccc4C3)cc(=O)n2c1` (stereo not drawn) [Compound 665, 2-(isoindolin-2-yl)-7-methyl-9-(1-((2-(pyridazin-4-yl)phenyl)amino)ethyl)-4H-pyrido[1,2-a]pyrimidin-4-one] returned an IC50 (EGF stimulation) of 100 to 500 nM. In addition, the “T47D pAKT S473 HTRF IC50 (H1047R): T47D (H1047R) selectivity over SKBR3 (WT)” value under setting [3] was “A (A denotes >20-fold)”.

Take `Cc1cc(C(C)Nc2cccc3c2OCC(=O)N3)c2nc(N3CCOCC3)cc(=O)n2c1` (stereo not drawn) [Compound 684]: the IC50 (EGF stimulation) is more than 2000 nM. Also, under setting [3], the “T47D pAKT S473 HTRF IC50 (H1047R): T47D (H1047R) selectivity over SKBR3 (WT)” value is “C (C denotes ≤5-fold)”.

As for `Cc1cc([C@@H](C)Nc2cccc3c2OCC(=O)N3)c2nc(N3CCOCC3)cc(=O)n2c1` [Compound 685], under “EGF stimulation”, the IC50 was more than 2000 nM. The “T47D pAKT S473 HTRF IC50 (H1047R): T47D (H1047R) selectivity over SKBR3 (WT)” value under setting [3] is on record as “C (C denotes ≤5-fold)”.
